Experimental data reported in US9856273B2, “ETP derivatives” (priority 2012, dated 2018).
pIC50: −log10 of the molar value.

Tests used:
[1] = test system: MDA-MB-468 triple negative breast cancer cells; assay: Cell viability assay; assay type: cell-based
[2] = test system: MDA-MB-231 triple negative breast cancer cells; assay: Cell viability assay; assay type: cell-based
[3] = test system: SKOV3 xenografts; assay type: in vivo, mouse; conditions: SKOV3 xenograft, 2.5 mg/kg IP once daily for 18 days
Description: Human SKOV3 cancer cells (4×10^6) were resuspended in serum-free McCoy's medium and Matrigel (ration of 1:1) and subcutaneously injected into the flank of 5-6 weeks old female NOD/SCID/IL-2rg(ko)(NSG). When palpable tumor sizes reached at approximately 50 mm^3, mice were divided into two groups (vehicle=9, treatment=9). Then, ETP69 was administered with IP injection at 2.5 mg/kg with vehicle (5% DMSO+15% Solutol+80% H2O), once daily for 18 days. Tumor volumes were calculated by the formula 1/2a×b^2, where a is the long diameter, and b is the short diameter. Tumor volumes correlate with tumor weights. The statistical significance of group differences was analyzed using a Student's t-test with the two-tailed distribution. P values less than 0.05 were considered statistically significant.

[4] = test system: A549 non-small cell lung cancer cells; assay: MTS cell viability assay, alone and in combination with multi-kinase inhibitor; assay type: cell-based; conditions: Homo sapiens
Description: Cell Testing Assays with ETP Derivatives in Combination with DNMT Inhibitors and Multi-Kinase Inhibitors (See FIGS. 12A-12D, 13A-13C and 14A-14C): MTS assays were performed for cell viability for combination study with ETP69 plus DNMT inhibitors or mutikinase inhibitor. Human SKOV3 ovarian and A549 non-small cancer cells were seeded in 96-well plates (5000/well), incubated overnight at 37° C. in 5% CO2, and exposed to ETP69 plus azacitidine, decitabine or sorafenib for 48. Dimethyl sulfoxide (DMSO) was used as the vehicle control. Viable cell numbers were determined by tetrazolium conversion to its formazan dye and absorbance was measured at 490 nm using an automated ELISA plate reader. Each experiment was performed in quadruplicate.
IC50 Determinations for Ovarian, Liver, Pancreatic, CML, AML Cancer Cell Lines (See e.g. FIGS. 4, 6A-6C, 21, 22A, 22B, 23, 24A-24C, 25A, 25B and 34): MTS assays were performed for cell viability. […] Viable cell numbers were determined by tetrazolium conversion to its formazan dye and absorbance was measured at 490 nm using an automated ELISA plate reader. […]

[5] = test system: normal pancreatic epithelial cells; assay: Viability of normal pancreatic epithelial cells; conditions: 100 nM to 1000 nM

SMILES: CN1C(=O)[C@@]23C[C@](C)(C#N)[C@H](c4ccc5c(c4)OCO5)N2C(=O)[C@]1(C)SS3 (racemic) [ETP69, Rac-(3S,6S,7S,8aS)-6-(Benzo[d][1,3]dioxol-5-yl)-2,3,7-trimethyl-1,4-dioxohexahydro-6H-3,8a-epidithiopyrrolo[1,2-a]pyrazine-7-carbonitrile]
- viability inhibition [1]: viability inhibition
- viability inhibition [2]: viability inhibition
- toxicity symptoms [3]: no observable toxicity symptoms
- tumor volume [3]: decreased
- tumor weight [3]: decreased
- pIC50 [4]: 7.00
- destruction of normal pancreatic cells [5]: little destruction
